We go through five compounds from patent publication US20020147217A1, “The treatment of sexual dysfunction with enantiomers” (R.T. Alamo Ventures I, L.L.C., priority 2001, published 2002).

Series [1] in a line: Plasma levels following oral administration.
Series [2] has as its target T1, PDE1 partially purified from bovine heart (Bos taurus, UniProt P14100).
T1 construct: PDE1 partially purified from bovine heart was used; from tissue; host or cells: bovine heart
In words: PDE1 enzyme inhibition assay (Example 3). Type of series: biochemical. How it is done:
(§1) In this example, a racemic mixture of flosequinan and the (+) and (−) enantiomers of flosequinan were subjected to biochemical enzyme assays to determine their respective percent inhibition of a variety of phosphodiesterases (PDE1-PDE6). The reaction conditions for each PDE assay were as follows.
(§2) PDE1: PDE1 partially purified from bovine heart was used. A racemic mixture of flosequinan, and each enantiomer of flosequinan, all at a molar concentration of 100 μM, were independently incubated with 13 μg PDE1 enzyme, 1.0 μM [^3H]cAMP and CaCl2/calmodulin in Tris buffer pH 7.5 for 20 minutes at 30° C. The reaction was terminated by boiling for 2 minutes, and the resulting AMP was converted to adenosine by addition of 10 mg/ml snake venom nucleotidase and further incubation at 30° C. for 10 minutes. Unhydrolyzed cAMP was bound to AGI-X2 resin, and the remaining [^3H]adenosine in the aqueous phase was quantitated by scintillation counting.

The test system of series [3] is PDE4 partially purified from human U-937 pronocytic cells. Put plainly: PDE4 enzyme inhibition assay (Example 3). The following applies: 100 μM. The format is biochemical. How it is done:
as §1
as §2, with “PDE4: PDE4” for “PDE1: PDE1”, “human U-937 pronocytic cells” for “bovine heart”, “20” for “13”, “PDE4 enzyme and 1 μM cAMP containing 0.01” for “PDE1 enzyme, 1.0”, “[^3H]cAMP” for “[^3H]cAMP and CaCl2/calmodulin”

In series [4] the target is T2, PDE3 partially purified from human platelets (Homo sapiens, UniProt Q14432).
T2 construct: PDE3 partially purified from human platelets was used; from tissue; host or cells: human platelets
T2 sequence (Q14432 whole entry): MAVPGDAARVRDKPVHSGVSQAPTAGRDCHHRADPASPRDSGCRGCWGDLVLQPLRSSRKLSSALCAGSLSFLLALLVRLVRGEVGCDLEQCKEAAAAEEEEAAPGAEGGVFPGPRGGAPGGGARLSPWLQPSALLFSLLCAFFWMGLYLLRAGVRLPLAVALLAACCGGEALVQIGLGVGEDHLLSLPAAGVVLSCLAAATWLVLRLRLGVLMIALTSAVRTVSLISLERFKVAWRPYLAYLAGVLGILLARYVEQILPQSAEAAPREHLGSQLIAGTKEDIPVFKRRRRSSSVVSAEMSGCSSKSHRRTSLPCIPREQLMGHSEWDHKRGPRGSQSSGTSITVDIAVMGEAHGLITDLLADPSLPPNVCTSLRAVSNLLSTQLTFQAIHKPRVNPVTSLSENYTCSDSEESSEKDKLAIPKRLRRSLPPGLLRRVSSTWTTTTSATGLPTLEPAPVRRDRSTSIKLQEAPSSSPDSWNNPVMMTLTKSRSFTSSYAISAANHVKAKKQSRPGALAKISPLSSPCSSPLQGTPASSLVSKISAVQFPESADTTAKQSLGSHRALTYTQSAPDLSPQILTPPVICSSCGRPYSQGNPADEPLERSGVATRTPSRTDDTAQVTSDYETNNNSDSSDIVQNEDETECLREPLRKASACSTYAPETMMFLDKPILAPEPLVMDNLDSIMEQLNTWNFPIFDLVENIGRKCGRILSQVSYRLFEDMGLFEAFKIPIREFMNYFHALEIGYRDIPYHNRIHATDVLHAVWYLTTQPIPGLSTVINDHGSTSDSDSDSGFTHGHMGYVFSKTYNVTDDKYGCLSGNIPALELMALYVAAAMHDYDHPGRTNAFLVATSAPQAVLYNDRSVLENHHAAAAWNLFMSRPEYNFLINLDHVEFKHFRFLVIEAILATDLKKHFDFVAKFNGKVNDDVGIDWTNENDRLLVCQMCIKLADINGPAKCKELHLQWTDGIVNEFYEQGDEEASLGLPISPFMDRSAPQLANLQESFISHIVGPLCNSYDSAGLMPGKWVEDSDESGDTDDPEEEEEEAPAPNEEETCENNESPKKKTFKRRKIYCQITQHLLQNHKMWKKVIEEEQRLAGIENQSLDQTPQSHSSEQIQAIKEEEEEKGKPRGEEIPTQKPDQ
In words: PDE3 enzyme inhibition assay (Example 3). The format is biochemical. How it is done:
as §1
as §2, with “PDE3: PDE3” for “PDE1: PDE1”, “human platelets” for “bovine heart”, “PDE3 enzyme and 1 μM cAMP containing 0.01” for “PDE1 enzyme, 1.0”, “[^3H]cAMP” for “[^3H]cAMP and CaCl2/calmodulin”

Series [5] deals with T3, PDE6 partially purified from bovine retinal rod (Bos taurus, UniProt P11541+P23439).
T3 construct: from tissue; host or cells: bovine retinal rod
T3 sequence (P11541 2-856 limits assumed): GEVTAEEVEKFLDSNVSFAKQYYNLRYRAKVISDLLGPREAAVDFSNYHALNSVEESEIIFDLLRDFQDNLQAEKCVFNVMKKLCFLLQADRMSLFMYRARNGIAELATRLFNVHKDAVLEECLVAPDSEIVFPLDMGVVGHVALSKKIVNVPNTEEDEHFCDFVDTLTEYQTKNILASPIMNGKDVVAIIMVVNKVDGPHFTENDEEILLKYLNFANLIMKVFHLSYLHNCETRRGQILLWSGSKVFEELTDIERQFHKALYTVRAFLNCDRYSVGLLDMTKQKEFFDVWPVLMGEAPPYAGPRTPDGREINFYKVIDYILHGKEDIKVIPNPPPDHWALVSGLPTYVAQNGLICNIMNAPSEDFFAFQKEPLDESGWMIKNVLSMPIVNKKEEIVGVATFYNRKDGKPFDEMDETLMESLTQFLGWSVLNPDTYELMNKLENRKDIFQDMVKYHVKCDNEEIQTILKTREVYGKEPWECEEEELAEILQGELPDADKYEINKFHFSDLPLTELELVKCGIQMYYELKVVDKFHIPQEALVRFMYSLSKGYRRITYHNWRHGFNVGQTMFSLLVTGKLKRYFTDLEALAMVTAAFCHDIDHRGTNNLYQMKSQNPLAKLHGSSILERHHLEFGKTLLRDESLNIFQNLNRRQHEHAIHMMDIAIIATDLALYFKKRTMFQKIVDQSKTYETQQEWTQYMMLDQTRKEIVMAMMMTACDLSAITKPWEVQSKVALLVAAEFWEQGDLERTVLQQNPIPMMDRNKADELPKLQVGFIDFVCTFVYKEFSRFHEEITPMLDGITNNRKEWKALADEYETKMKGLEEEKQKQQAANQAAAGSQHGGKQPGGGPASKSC
T3 sequence (P23439 2-850 limits assumed): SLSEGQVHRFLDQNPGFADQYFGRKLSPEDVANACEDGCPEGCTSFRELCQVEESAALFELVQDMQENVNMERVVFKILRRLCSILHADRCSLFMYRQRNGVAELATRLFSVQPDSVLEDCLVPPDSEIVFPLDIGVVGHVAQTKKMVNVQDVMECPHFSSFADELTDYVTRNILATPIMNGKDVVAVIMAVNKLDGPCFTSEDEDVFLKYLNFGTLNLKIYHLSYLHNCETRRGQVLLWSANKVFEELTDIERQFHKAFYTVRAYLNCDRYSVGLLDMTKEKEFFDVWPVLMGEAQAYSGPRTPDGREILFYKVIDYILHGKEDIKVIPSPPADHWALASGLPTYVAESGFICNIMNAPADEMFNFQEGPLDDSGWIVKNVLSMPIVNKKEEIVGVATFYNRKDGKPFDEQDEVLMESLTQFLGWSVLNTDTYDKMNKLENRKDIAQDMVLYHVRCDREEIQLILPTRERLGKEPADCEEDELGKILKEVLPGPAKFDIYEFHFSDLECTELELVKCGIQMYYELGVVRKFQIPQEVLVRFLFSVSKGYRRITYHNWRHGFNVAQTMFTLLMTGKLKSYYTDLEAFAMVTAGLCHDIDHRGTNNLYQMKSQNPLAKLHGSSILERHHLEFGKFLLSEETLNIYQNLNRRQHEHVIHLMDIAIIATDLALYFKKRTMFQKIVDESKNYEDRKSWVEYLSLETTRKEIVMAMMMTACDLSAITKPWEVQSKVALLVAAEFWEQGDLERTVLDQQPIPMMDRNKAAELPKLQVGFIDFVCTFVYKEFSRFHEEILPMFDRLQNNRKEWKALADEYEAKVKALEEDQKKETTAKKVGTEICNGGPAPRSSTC
Put plainly: PDE6 enzyme inhibition assay (Example 3). The format is biochemical. The following applies: for % Inhibition of PDE6: 100 μM. How it is done: as §1
(§3) PDE6: PDE6 partially purified from bovine retinal rod and activated by trypsin was used. A racemic mixture of flosequinan, and each enantiomer of flosequinan, all at a molar concentration of 100 μM, were independently incubated with 0.2 μg/ml active PDE6 and 100 μM cGMP containing 0.1 μM [^3H]cGMP in Tris buffer pH 7.5 for 20 minutes at 30° C. Each reaction was terminated by boiling for 2 minutes. The resulting GMP was converted to guanosine by addition of 10 mg/ml snake venom nucleotidase, and further incubated at 30° C. for 10 minutes. Unhydrolyzed cGMP was bound to AGI-X2 resin, and [^3H]guanosine remaining in the aqueous phase was quantitated by scintillation counting.

The target of series [6] is T4, PDE2 partially purified from human platelets (Homo sapiens, UniProt O00408).
T4 construct: PDE2 partially purified from human platelets was used; from tissue; host or cells: human platelets
T4 sequence (O00408 whole entry): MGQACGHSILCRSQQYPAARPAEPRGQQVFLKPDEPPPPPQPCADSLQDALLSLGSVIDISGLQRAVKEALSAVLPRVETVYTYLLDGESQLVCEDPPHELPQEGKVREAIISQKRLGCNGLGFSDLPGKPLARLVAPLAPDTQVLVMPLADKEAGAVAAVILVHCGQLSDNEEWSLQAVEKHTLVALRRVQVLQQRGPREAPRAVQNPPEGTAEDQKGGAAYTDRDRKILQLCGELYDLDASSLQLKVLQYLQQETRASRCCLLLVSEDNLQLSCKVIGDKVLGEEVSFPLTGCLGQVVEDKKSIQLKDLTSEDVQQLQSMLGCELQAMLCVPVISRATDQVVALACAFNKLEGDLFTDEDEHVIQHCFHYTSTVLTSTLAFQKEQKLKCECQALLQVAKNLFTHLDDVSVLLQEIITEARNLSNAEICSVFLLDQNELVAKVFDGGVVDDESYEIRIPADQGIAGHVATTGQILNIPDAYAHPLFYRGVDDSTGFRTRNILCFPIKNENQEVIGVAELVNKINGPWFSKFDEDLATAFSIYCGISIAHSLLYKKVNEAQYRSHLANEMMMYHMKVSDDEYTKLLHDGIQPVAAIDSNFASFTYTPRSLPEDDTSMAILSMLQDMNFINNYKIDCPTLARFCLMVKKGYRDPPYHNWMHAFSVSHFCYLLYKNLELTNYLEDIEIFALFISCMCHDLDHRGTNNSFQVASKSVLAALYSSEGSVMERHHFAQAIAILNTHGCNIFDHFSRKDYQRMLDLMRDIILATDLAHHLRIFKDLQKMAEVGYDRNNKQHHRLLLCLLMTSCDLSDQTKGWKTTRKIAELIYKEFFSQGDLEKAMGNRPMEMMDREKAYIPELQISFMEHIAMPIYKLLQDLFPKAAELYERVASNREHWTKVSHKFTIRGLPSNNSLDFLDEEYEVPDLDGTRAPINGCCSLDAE
Put plainly: PDE2 enzyme inhibition assay (Example 3). The format is biochemical. The following applies: for % Inhibition of PDE2: 100 μM. How it is done:
as §1
as §2, with “PDE2: PDE2” for “PDE1: PDE1”, “human platelets” for “bovine heart”, “23” for “13”, “PDE2” for “PDE1”, “25 μM cAMP containing 0.05” for “1.0”, “[^3H]cAMP” for “[^3H]cAMP and CaCl2/calmodulin”

For series [7], the target named is T5, PDE5 partially purified from human platelets (Homo sapiens, UniProt O76074).
T5 construct: PDE5 partially purified from human platelets was used; from tissue; host or cells: human platelets
Put plainly: PDE5 enzyme inhibition assay (Example 3). Type of series: biochemical. The following applies: for % Inhibition of PDE5: 100 μM. As to the method:
as §1
PDE5: PDE5 partially purified from human platelets was used. A racemic mixture of flosequinan, and each enantiomer of flosequinan, all at a molar concentration of 100 μM, were independently incubated with 120 μg PDE5 enzyme and 1 μM cGMP containing 0.01 μM [^3H]cGMP in Tris buffer pH 7.5 for 20 minutes at 30° C. The reaction was terminated by boiling for 2 minutes, and the resulting GMP was converted to guanosine by addition of 10 mg/ml snake venom nucleotidase and further incubation at 30° C. for 10 minutes. Unhydrolyzed cGMP was bound to AGI-X2 resin, and the remaining [^3H]guanosine in the aqueous phase was quantitated by scintillation counting.

The target in series [8] is T3, PDE6 partially purified from bovine retinal rod. Put plainly: PDE6 inhibition assay, Viagra versus racemic flosequinan (Example 1). The format is biochemical. How it is done:
as §3, with “PDE6” for “PDE6: PDE6”, “used. In four separate reactions, Viagra at molar concentrations of 0.3 μM, 1.0 μM, and 3.0 μM, and a 100 μM” for “used. A”, “of flosequinan” for “of flosequinan, and each enantiomer of flosequinan, all at a molar concentration of 100 μM,”, “were” for “were independently”, “by raising the temperature to 100° C.” for “by boiling”, “venom nucleotidase” for “venom nucleotidase,”

The conditions of series [9]: in vivo, po.

Where a name gives a salt, the structure may show the parent alone. Read-outs that look alike come from different tables or passages of the source.

T1 sequence (P14100 1-514 isoform P14100-2): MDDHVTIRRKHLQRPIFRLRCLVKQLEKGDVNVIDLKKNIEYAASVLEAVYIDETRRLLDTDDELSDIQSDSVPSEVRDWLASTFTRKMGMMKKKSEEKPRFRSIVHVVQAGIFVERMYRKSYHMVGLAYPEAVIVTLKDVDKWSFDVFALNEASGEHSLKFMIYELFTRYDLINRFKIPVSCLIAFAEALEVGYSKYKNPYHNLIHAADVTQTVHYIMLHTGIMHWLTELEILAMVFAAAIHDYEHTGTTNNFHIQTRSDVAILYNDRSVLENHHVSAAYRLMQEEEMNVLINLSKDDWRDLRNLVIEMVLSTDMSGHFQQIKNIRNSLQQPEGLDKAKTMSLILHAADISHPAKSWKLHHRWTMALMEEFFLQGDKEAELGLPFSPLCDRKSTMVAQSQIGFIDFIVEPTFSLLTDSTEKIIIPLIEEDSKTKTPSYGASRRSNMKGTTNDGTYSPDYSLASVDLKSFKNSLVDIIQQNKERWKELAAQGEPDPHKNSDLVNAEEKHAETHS

With `CSc1cn(C)c2cc(F)ccc2c1=O` [metabolite], the “Time of peak plasma concentration” value in series [1] is on record as “about seven”.
Take `Cn1cc([S+](C)[O-])c(=O)c2ccc(F)cc21` (single isomer, unassigned; (-)) [(−)-flosequinan]: the “% Inhibition of PDE1” value in series [2] (100 μM) amounted to 11%. Besides, in series [3], the “% Inhibition of PDE4” value worked out at 1%. Also, the “% Inhibition of PDE3” value in series [4] (100 μM) came to 5%. In addition, the “% Inhibition of PDE6” value in series [5] turned out to be 21%. Further, in [6], the “% Inhibition of PDE2” value worked out at 13%. The “% Inhibition of PDE5” value in series [7] amounted to 10%.
As a reminder, the inhibition is the share of the control response that was lost under treatment. Regarding `CCCc1nn(C)c2c(=O)[nH]c(-c3cc(S(=O)(=O)N4CCN(C)CC4)ccc3OCC)nc12` [Viagra, Sildenafil citrate], the inhibition at 0.3 µM in series [8] (read-out: % Inhibition of PDE6, 0.3 μM compound) is approximately 50%. Also, the inhibition at 1 µM in series [8] (read-out: % Inhibition of PDE6, 1.0 μM compound) stood at 62%. The inhibition at 3 µM in series [8] (read-out: % Inhibition of PDE6, 3.0 μM compound) was 87%.
Consider `Cn1cc([S+](C)[O-])c(=O)c2ccc(F)cc21` (racemic) [Flosequinan, 7-fluoro-1-methyl-3-(methylsulphinyl)-4(1H)-quinolone, reference compound], for which the inhibition at 100 µM in series [2] is 31%; in series [8] (100 μM compound), 36%; in series [4] (100 μM), 26%; in series [5] it was 21%; in series [6] it was 18%; in series [7] it was 11%. In series [8] (read-out: Concentration required for around 50% inhibition of PDE6), the IC50 was more than 100 µM. Moreover, the “Times more compound on a molar basis than Viagra needed for around 50% PDE6 inhibition” value in series [8] (versus Viagra 0.3 μM) was “more than 300 times”. The “% Inhibition of PDE4” value in series [3] is on record as 24%.
Turning to `Cn1cc([S@@+](C)[O-])c(=O)c2ccc(F)cc21` [(+)-flosequinan], in series [2] (100 μM), the “% Inhibition of PDE1” value is reported as 28%; the “PDE1 inhibitory activity compared with the (−) enantiomer” value was “more PDE1 and PDE3 inhibitory activity”. In addition, in [3], the “% Inhibition of PDE4” value was 6%. Also, the “Time of peak plasma concentration” value in series [9] lay within 1 to 2 h. Also, in series [4] (100 μM), the “% Inhibition of PDE3” value came out at 32%; the “PDE3 inhibitory activity compared with the (−) enantiomer” value was “more PDE1 and PDE3 inhibitory activity”. For the same compound, in series [4] (same molar concentration), the “Increase in PDE3 inhibition compared to the (−) enantiomer” value is recorded as “eight-fold” and the “PDE3 inhibition compared with racemic mixture of flosequinan” value is reported as “greater inhibition of PDE3 than a racemic mixture of flosequinan”. For the same compound, the “% Inhibition of PDE6” value in [5] is reported as 22%. For the same compound, in [6], the “% Inhibition of PDE2” value is given as 18%. The “% Inhibition of PDE5” value in series [7] was found to be 17%.
